Laboratory results from US20260199485A1, “RNA DEGRADERS AND USES THEREOF” (Arrakis Therapeutics, Inc., priority 2022, published 2026).

Experiments:
CNOT7 [1] = molecular target: T1, CNOT7 (Homo sapiens, UniProt Q9UIV1); assay: Binding of compounds to CNOT7 by surface plasmon resonance (SPR)
T1 construct: biotin (biotinylated); purchased Ichor Life Sciences
How it was run: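 Biotinylated CNOT7 captured on a streptavidin chip (~7,500 RU); compounds injected at several concentrations (120 s association, 120 s dissociation, 30 ul/min) in 20 mM HEPES pH7.5, 100 mM KCl, 3 mM MgCl2, 1 mM TCEP, 0.05% tween-20, 2% DMSO. Reference- and solvent-corrected sensograms fit to a 1:1 steady-state affinity model.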

CNOT7 [2] = molecular target: T1, CNOT7; assay: CNOT7 inhibition assay (recombinant Avi-tagged CNOT7, deadenylation gel); format: biochemical; details: 50 μM compound, 100 nM recombinant Avi-tagged CNOT7, 200 nM RNA
Method: Recombinant CNOT7 (with a C-terminal Avi tag) was produced in E. coli and purified to high purity. For this biochemical assay, deadenylation reactions are carried out by refolding 2 microM fluorescently labeled RNA substrate (5′ 6-FAM-[…] AAAAAA (SEQ ID NO:1) in the presence of 100 mM KCl and 3 mM MgCl2 at 37 C for 30 minutes and then pre-incubating the RNA with 500 microM compound (inhibitor, heterobifunctional, or the CNOT7 binding moiety of the heterobifunctional) at room temperature for 30 minutes (in the presence of 0.05% Tween-20) before initiating the deadenylation reaction with the addition of the recombinant CNOT7 (with Avi-tag). In the reactions, the final concentration of RNA was 200 nM, the final concentration of the compounds was 50 μM, and the final concentration of CNOT7 was 100 nM. Glycerol and BSA were included in the reactions to aid in protein stability and activity (final concentrations of 5% and 0.15 mg/mL, respectively). Timepoints were removed from the reaction and quenched by adding formamide loading dye including 10 mM EDTA. Samples were run on 15% TBE-Urea gels at 180V for 2-2.5 hours and imaged using an Azure imager with FAM detection settings. Bands were quantified using ImageJ and % full length substrate over time was normalized to band intensity at time zero.
This was to be expected as the CNOT7 binding moieties are not expected to bind in the active site or interfere with the ability of CNOT7 to deadenylate RNA. […] We speculate that the inhibition is caused by specific interaction of the heterobifunctional compounds with the recombinant Avi-tagged CNOT7.

CNOT7:CNOT1 complex = molecular target: T2, CNOT7:CNOT1 complex (Homo sapiens, UniProt Q9UIV1); assay: CNOT7:CNOT1 recombinant assay (deadenylation gel); format: biochemical; details: 50 microM compound, 50 nM CNOT7:CNOT1
T2 construct: purchased Helix Biosciences; host or cells: E. coli
T2 sequence (Q9UIV1 whole entry): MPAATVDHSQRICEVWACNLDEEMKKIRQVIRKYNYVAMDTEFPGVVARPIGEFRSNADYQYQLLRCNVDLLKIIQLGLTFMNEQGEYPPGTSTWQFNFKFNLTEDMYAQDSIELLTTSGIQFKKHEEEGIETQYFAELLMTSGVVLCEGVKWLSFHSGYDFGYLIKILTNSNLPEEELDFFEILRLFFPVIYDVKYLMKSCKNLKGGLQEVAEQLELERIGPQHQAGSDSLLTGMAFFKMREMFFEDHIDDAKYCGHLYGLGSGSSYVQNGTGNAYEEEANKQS
T2 sequence (A5YKK6 1093-1317 partner limits assumed): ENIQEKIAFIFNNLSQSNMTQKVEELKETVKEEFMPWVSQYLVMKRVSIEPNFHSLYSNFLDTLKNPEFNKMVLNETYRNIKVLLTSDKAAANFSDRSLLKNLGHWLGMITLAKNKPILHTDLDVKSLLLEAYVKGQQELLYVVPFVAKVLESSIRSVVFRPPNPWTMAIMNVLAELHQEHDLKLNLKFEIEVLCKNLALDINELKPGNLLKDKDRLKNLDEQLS
Method: Recombinant CNOT7:CNOT1 (MIF4G domain: aa 1093-1317) complex was produced in E. coli including an 8×His affinity tag, which was cleaved prior to use. The resulting untagged complex was purified to high purity (Helix Biosciences). For this biochemical assay, deadenylation reactions are carried out by refolding 2 microM fluorescently labeled RNA substrate (5′ 6-FAM-[…] AAAAAA (SEQ ID NO:1)) in the presence of 100 mM KCl and 3 mM MgCl2 at 37 C for 30 minutes and then pre-incubating the RNA with 500 microM compound (inhibitor, heterobifunctional, or the CNOT7 binding moiety of the heterobifunctional) at room temperature for 30 minutes (in the presence of 0.05% Tween-20) before initiating the deadenylation reaction with the addition of recombinant CNOT7:CNOT1 complex. In the reactions, the final concentration of RNA was […], the final concentration of the compounds was 50 microM, and the final concentration of CNOT7:CNOT1 was 50 nM. Glycerol and BSA were included in the reactions to aid in protein stability and activity (final concentrations of 5% and 0.15 mg/mL, respectively). Timepoints were removed from the reaction and quenched by adding formamide loading dye including 10 mM EDTA. Samples were run on 15% TBE-Urea gels at 180V for 2-2.5 hours to resolve substrate and product bands and imaged using an Azure imager with FAM detection settings. Bands were quantified using ImageJ and % full length substrate over time was calculated by [Intensity of substrate band]/[Total intensity of full lane of gel].

CNOT7 [3] = molecular target: T1, CNOT7; assay: AMP competition assay by SPR (active site vs other site of CNOT7); format: binding; details: combination with AMP, increasing concentrations
Method: In order to evaluate if the compounds bound to the active site of CNOT7, an AMP competition experiment was performed. FIG. 5 provides a schematic of a surface plasmon resonance (SPR) experiment to interrogate if a CNOT7 binding compound binds in the active site of CNOT7. Briefly, AMP, which is a known binder to the active site, was interrogated at increasing concentrations for binding to CNOT7. As a next step, a CNOT7 binding compound was interrogated at increasing concentrations for binding to CNOT7. As a final step a combination of AMP and CNOT7 binding compound was interrogated by SPR at increasing concentrations for binding to CNOT7. If the signals were additive, AMP and the CNOT7 compounds bind to independent sites on CNOT7. […] In contrast, if the signals are not additive, this would indicate that AMP and CNOT7 […] for the same site. […] As a control, literature compounds that are active site binders, compounds A, B and C, are not additive when combined with AMP.

[4] = molecular target: T3, CNOT7-FKBP12(F36V) fusion protein (Homo sapiens, UniProt Q9UIV1); assay: Biochemical gel assay: degradation/deadenylation of RNA substrate with immunoprecipitated CNOT7-FKBP12(F36V); set-up: key to Activity by gel: +: an activity observed as compared to DMSO control; −: no activity observed as compared to DMSO control; details: for interference with the ability of CNOT7 to degrade RNA: compound added to the CNOT7 and RNA mixture (FIG. 11); for Activity by gel: Table 8, degradation of RNA, compared to DMSO control
T3 construct: expressed in transfected cells; host or cells: H1299 cells; anti-HA immunoprecipitation, HA-peptide elution
T3 sequence (Q9UIV1 with tags, fused parts or gaps): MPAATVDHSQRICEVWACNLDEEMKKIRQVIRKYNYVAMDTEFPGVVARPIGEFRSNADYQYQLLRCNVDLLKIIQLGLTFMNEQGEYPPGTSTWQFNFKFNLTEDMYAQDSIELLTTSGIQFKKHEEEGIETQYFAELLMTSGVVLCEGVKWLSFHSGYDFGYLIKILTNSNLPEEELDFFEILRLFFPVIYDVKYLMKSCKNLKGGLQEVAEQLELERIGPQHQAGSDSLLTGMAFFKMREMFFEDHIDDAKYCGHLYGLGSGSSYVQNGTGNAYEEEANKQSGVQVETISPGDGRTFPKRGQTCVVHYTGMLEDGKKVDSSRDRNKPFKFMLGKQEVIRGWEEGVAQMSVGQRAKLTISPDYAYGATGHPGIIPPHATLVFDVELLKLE
Source text: Biochemical reporter systems were generated to evaluate the ability of CNOT7 binding compounds to accelerate the degradation of RNA by CNOT7. […] Generation of the target RNA was described in the previous experiment. […] The bifunctional molecules consist of Compound 1-4 and the following rSM:
which binds to the RNA sequence of AST-X, or the rSM linked to a tag that binds CNOT7-FKBPV. Specifically, the tag is compound AP1867 (CAS NO.: 195514-23-9), a known binder of FKBPV, resulting in the rSM-AP1867tag. The CNOT7-FKBPV is obtained by immunoprecipitation of cell engineered to express CNOT-FKBPV. Specifically, H1299 cells were transfected with plasmid expressing HA-tagged CNOT7-FKBP12(F36V) fusion protein. After 24 hours, cells were pelleted and lysed in the following lysis buffer: 20 mM HEPES pH 7.3, 0.2 mM EGTA, 10% glycerol, 0.1 mM DTT with cOmplete EDTA-free protease inhibitors (Millipore). After freeze-thawing, NaCl was added to a concentration of 400 mM and lysates were pelleted to clear cellular debris. Cleared lysate was adjusted to buffer conditions containing 0.1% NP-40 and 150 mM NaCl before being applied to Pierce Anti-HA magnetic beads (ThermoFisher) at 4° C. for 2-20 hours with end-over-end rotation. After washing, bound protein was competitively eluted with 2 mg/mL HA peptide (ThermoFisher) in activity assay buffer at 4° C. for 2-20 hours. It should be appreciated that this immunoprecipitation protocol will result in tagged CNOT7 that will likely have other components of the CCR4-NOT complex bound as well.
The reactions were incubated at 37° C., with specified timepoints removed from the reaction and combined with 2× formamide RNA loading buffer with 10 mM EDTA before boiling for 3 minutes to quench the reaction. Samples were run on a pre-warmed 15% TBE-Urea polyacrylamide gel at 180V for 90 minutes and then imaged using Cy2 settings on the Azure Biosystems 600 Imaging System. […] It should be noted that the CCR4-NOT complex includes proteins other than CNOT7, for instance CNOT6, that have deadenylation and/or exonuclease activity.
These findings were confirmed in the biochemical assay described above. […] In contrast, literature compounds that are active site binders, compounds A, B and C, structure depicted on the right-hand side, do interfere with the ability of CNOT7 to degrade RNA (See center panel of gel).
Heterobifunctional molecules were generated by conjugating the rSM depicted above, which binds RNA with an AST-X sequence, to AP1867 (a small molecule binder of FKBP12(F36V)), resulting in rSM-AP1867tag. In addition, I-243 was conjugated to the rSM resulting in compounds 1-329 and I-371, depicted in FIG. 17. Fluorescently labeled RNA substrates were refolded in the presence of Mg^2+ and incubated 10, 25, or 50 μM doses of heterobifunctional molecules for 30 minutes at room temperature before the enzymatic reaction was initiated with the elution fraction (containing CNOT7-FKBP12(F36V) fusion protein) from the immunoprecipitation protocol above. The reactions were incubated at 37° C., with specified timepoints removed from the reaction and combined with 2× formamide RNA loading buffer with 10 mM EDTA before boiling for 3 minutes to quench the reaction. Samples were run on a pre-warmed 15% TBE-Urea polyacrylamide gel at 180V for 120 minutes and then imaged using Cy2 settings on the Azure Biosystems 600 Imaging System (See FIGS. 18, 19A and 19B). In addition, for 1-371 and the control rSM-AP1867tag, the disappearance of the full-length substrate band was quantified using ImageJ and plotted over time (FIG. 19B).

[5] = dissociation constant by SPR, Table 7
[6] = Table 4, dissociation constant for CNOT7
[7] = Table 5, dissociation constant for CNOT7 by SPR

T1 sequence (Q9UIV1 whole entry): as the sequence (Q9UIV1 whole entry) above

## COc1ccc([C@@H](C)NC(=O)CSc2nc(=O)[nH]cc2Cl)c(F)c1 [Compound I-330]
CNOT7 [1]; Table 6, dissociation constant for CNOT7 by SPR
  Kd: 0.1 to 1 µM
CNOT7 [1]; [5]
  Kd: 1 to 25 µM
CNOT7 [2]
  inhibition of CNOT7 activity (rate of deadenylation vs DMSO control): slightly inhibited CNOT7 activity
CNOT7:CNOT1 complex
  inhibited or accelerated the deadenylation activity of the CNOT7:CNOT1 complex: neither

## COc1ccc(CNC(=O)CSc2nc(=O)[nH]cc2C)cc1 [Compound I-4]
CNOT7 [1]; [6]
  Kd: 1 to 25 µM
CNOT7 [3]
  SPR signal additive to AMP (additive = binds CNOT7 at a location other than the active site): additive to AMP
[4]
  interference with the ability of CNOT7 to degrade RNA: did not interfere

## COc1ccc2c(c1)C[C@H](COCCOCCOCCOCCn1cc(COCCOCCOc3ccc(NC(=O)Nc4nc(CC(=O)N5CCN(C)CC5)cs4)cc3)nn1)C(C(=O)CSc1nc(=O)[nH]cc1C)C2 (stereo partly drawn) [Compound I-496]
CNOT7 [1]; [5]
  Kd: > 25 µM
[4]
  Activity by gel: +
CNOT7 [2]
  inhibition of CNOT7 activity (rate of deadenylation vs DMSO control): inhibit some of the CNOT7 activity
CNOT7:CNOT1 complex
  inhibited or accelerated the deadenylation activity of the CNOT7:CNOT1 complex: neither

## Cc1c[nH]c(=O)nc1SCC(=O)NCc1ccccc1 [Compound I-3, N-Benzyl-2-[(5-methyl-2-oxo-1H-pyrimidin-4-yl)sulfanyl]acetamide]
CNOT7 [1]; [6]
  Kd: > 25 µM
CNOT7 [3]
  SPR signal additive to AMP (additive = binds CNOT7 at a location other than the active site): additive to AMP
[4]
  interference with the ability of CNOT7 to degrade RNA: did not interfere

## COc1ccc([C@@H](C)NC(=O)[C@@H](CCOCCOCCOCCn2cc(COCCOCCOCCOCCOc3ccc(NC(=O)Nc4nc(CC(=O)N5CCN(C)CC5)cs4)cc3)nn2)Sc2nc(=O)[nH]cc2Cl)c(F)c1 [Compound I-397]
CNOT7 [1]; [5]
  Kd: 1 to 25 µM
[4]
  Activity by gel: +
CNOT7 [2]
  inhibition of CNOT7 activity (rate of deadenylation vs DMSO control): inhibit some of the CNOT7 activity

## COc1ccc2c(c1)CCN(C(=O)CSc1nc(=O)[nH]cc1C)C2 [Compound I-198]
CNOT7 [1]; [7]
  Kd: 1 to 25 µM
CNOT7 [2]
  inhibition of CNOT7 activity (rate of deadenylation vs DMSO control): did not inhibit CNOT7 activity
CNOT7:CNOT1 complex
  inhibited or accelerated the deadenylation activity of the CNOT7:CNOT1 complex: neither

## COc1ccc(C(C)NC(=O)CSc2nc(=O)[nH]cc2C)c(F)c1 (stereo not drawn) [Compound I-243]
CNOT7 [1]; [7]
  Kd: 0.1 to 1 µM
CNOT7 [2]
  inhibition of CNOT7 activity (rate of deadenylation vs DMSO control): slightly inhibited CNOT7 activity
CNOT7:CNOT1 complex
  inhibited or accelerated the deadenylation activity of the CNOT7:CNOT1 complex: neither

## COc1ccc(CNC(=O)[C@H](COCCOCCOCCn2cc(COCCOCCOc3ccc(NC(=O)Nc4nc(CC(=O)N5CCN(C)CC5)cs4)cc3)nn2)Sc2nc(=O)[nH]cc2C)cc1 [Compound I-469]
CNOT7 [1]; [5]
  Kd: 1 to 25 µM
[4]
  Activity by gel: −

## Cc1c[nH]c(=O)nc1SCC(=O)NCc1ccc2c(c1)OCO2 [Compound I-1]
CNOT7 [1]; [6]
  Kd: 1 to 25 µM
CNOT7 [3]
  SPR signal additive to AMP (additive = binds CNOT7 at a location other than the active site): additive to AMP
[4]
  interference with the ability of CNOT7 to degrade RNA: did not interfere

## COc1ccc(CNC(=O)[C@H](COCCOCCOCCn2cc(COCCOCCOCCOCCOc3ccc(NC(=O)Nc4nc(CC(=O)N5CCN(C)CC5)cs4)cc3)nn2)Sc2nc(=O)[nH]cc2C)c(F)c1 [Compound I-478]
CNOT7 [1]; [5]
  Kd: 1 to 25 µM
[4]
  Activity by gel: +

## COc1ccc(CNC(=O)[C@@H](COCCOCCOCCn2cc(COCCOCCOc3ccc(NC(=O)Nc4nc(CC(=O)N5CCN(C)CC5)cs4)cc3)nn2)Sc2nc(=O)[nH]cc2C)c(F)c1 [Compound I-473]
CNOT7 [1]; [5]
  Kd: 1 to 25 µM
[4]
  Activity by gel: −

## COc1ccc2c(c1)C[C@H](COCCOCCOCCOCc1cn(CCOc3ccc(NC(=O)Nc4nc(CC(=O)N5CCN(C)CC5)cs4)cc3)nn1)N(C(=O)CSc1nc(=O)[nH]cc1C)C2 [Compound I-339]
CNOT7 [1]; [5]
  Kd: > 25 µM
[4]
  Activity by gel: +

## COc1ccc2c(c1)C[C@@H](COCCOCCOCCOCc1cn(CCOc3ccc(NC(=O)Nc4nc(CC(=O)N5CCN(C)CC5)cs4)cc3)nn1)N(C(=O)CSc1nc(=O)[nH]cc1C)C2 [Compound I-338]
CNOT7 [1]; [5]
  Kd: > 25 µM
[4]
  Activity by gel: −
